Assay results from patent US20260355168A1, “COMPOSITIONS AND METHODS FOR TREATING AND DETECTING CANCER” (CASE WESTERN RESERVE UNIVERSITY, priority 2022, published 2026).
“Also recorded” adds a separate entry of the source.

What was measured:
PTPμ = PTPμ (Homo sapiens, UniProt P28827); test: In vitro phosphatase assay, GST-PTPμ_intra, malachite green; assay type: biochemical; parameters: A2: GST-PTPμ_intra, entire intracellular domain, aa 765-1449 (phosphatase)
Description: FIG. 8 illustrates a histogram showing the results of the phosphatase assays. […] The enzyme was pretreated on ice for 10 min, and the reactions started by addition of a peptide substrate and incubation at 30 °C. The amount of released phosphate was measured at 15 min using the malachite green reaction and normalized to that of the vehicle-treated control. Data is presented as percentages±s.e.m. of the indicated number of independent experiments. Differences were assessed using the Student's t-test with comparison to an untreated control sample (as all DMSO samples were set to 100% release). A difference was deemed significant at p<0.05.
A GST fusion protein containing the intracellular domain of PTPμ (B5: aa 765-1449) (PTPμ_intra) was prepared as described. Phosphatase reactions (50 μl total volume) were assembled on ice by mixing 0.4 μg GST-PTPμ_intra with phosphatase buffer (25 mM Hepes pH 7.4, 50 mM NaCl and 2 mM DTT) and compounds (100 μM) or DMSO (1%). […] Colorimetric product was allowed to develop for 15 min at room temperature, and the absorbance of the samples and a standard curve of free phosphate (assembled per the manufacturer's instructions) were read at 600 nm on a Synergy HT Microplate Reader (BioTek Instruments Inc., Winooski, Vermont). The amount of released phosphate was calculated, normalized to that released by the DMSO control sample, and expressed as a percent. […]

LN229 tumor xenograft = test: Human glioma flank tumor (LN229) growth assay in nude mice; assay type: in vivo, athymic nude mice; human LN229 cells
Description: FIGS. 9(A-C) illustrates a plot and images of the results of the human glioma tumor model in mice. LN229-flank tumors (n=6 per treatment group) established in nude mice were injected with vehicle or compound once a week for three weeks. A. Tumor sizes were measured once a week for four weeks and normalized to their starting sizes. Data is presented as average percent growth±s.e.m. Between-group comparisons were made using Student's t-test. Differences were considered significant at p<0.05. […] Representative images of H&E-stained sections from tumors (two per treatment group) harvested at 4-weeks are shown.
Glioma-cell tumor xenografts were prepared as previously described. Briefly, LN229 cells (2×10^6 per injection) mixed with Matrigel (Corning, Corning Inc., Corning, NY, USA) were subcutaneously injected into the flank of athymic nude (FoxN1^nu/Foxn1^nu) female mice bred by the Case Western Reserve University Athymic Animal Core Facility or obtained from The Jackson Laboratory (Bar Harbor, ME). Experiments were approved by our IACUC committee. Twelve days post tumor-cell-injection, 247678835 or DMSO was diluted into PBS to give final concentrations of 2 mM or 20%, respectively, and 25 μl was injected into the center of each flank tumor. Additional compound or DMSO injections were given 7 and 14 days after the first injection, and tumor volumes [(length×width^2)/2] were recorded once a week for 4 weeks. At four weeks, mice were sacrificed, and tumors were isolated, fixed in 10% buffered formalin, and prepared for paraffin sectioning. Five micron-thick sections were cut, stained with H&E, and images captured with a Hamamatsu Nanozoomer S60 Slide Scanner (Hama-matsu Photonics, K.K., Bridgewater, NJ, USA).
Human LN229 glioma cells were subcutaneously injected into the flanks of twelve athymic nude mice (n=6 per treatment group). Once tumors were established (12-days post cell injection), DMSO or 247678835 was injected into the center of each tumor once a week for three weeks, and tumor volumes were calculated from caliper measurements. […] Mice were sacrificed 4 weeks after the first treatment, and tumors were harvested, fixed, sectioned, and stained with H&E.

parental Sf9 cells = test: Helix Blue staining of parental Sf9 cells (cell survival); assay type: cell-based, insect; conditions: 100 μM, 24 h, cells lack PTPμ
Description: FIG. 17 illustrates images showing the effects of prioritized inhibitors on cell survival. LN229 cells were plated onto non-adherent surfaces and cultured in the presence of the indicated compounds (100 μM). On day 1, spheres were stained with Helix Blue to detect dying cells. Parental Sf9 cells (which lack PTPμ) plated onto tissue culture plastic were also grown in the presence of the indicated compounds and, on day 1, stained with Helix Blue. Three compounds appeared to cause a qualitative increase in staining in LN229 spheres. No compound was toxic to Sf9 cells.
LN229 cells, plated onto non-adherent surfaces as described above, and parental Sf9 cells (without PTPμ), seeded into 96-well flat bottom tissue culture plates, were treated for 24 h with the indicated compounds (100 μM). The cells and spheres were then treated with 5.5 μM Helix Blue (Biolegend, San Diego, CA) and imaged at 10× on a Leica CTR6500 fluorescence microscope.
The seven penetrant inhibitors were tested to see if they affected the survival of LN229 spheres and parental Sf9 cells (which lack PTPμ) (FIG. 17).

Sequence of PTPμ (P28827 21-1452): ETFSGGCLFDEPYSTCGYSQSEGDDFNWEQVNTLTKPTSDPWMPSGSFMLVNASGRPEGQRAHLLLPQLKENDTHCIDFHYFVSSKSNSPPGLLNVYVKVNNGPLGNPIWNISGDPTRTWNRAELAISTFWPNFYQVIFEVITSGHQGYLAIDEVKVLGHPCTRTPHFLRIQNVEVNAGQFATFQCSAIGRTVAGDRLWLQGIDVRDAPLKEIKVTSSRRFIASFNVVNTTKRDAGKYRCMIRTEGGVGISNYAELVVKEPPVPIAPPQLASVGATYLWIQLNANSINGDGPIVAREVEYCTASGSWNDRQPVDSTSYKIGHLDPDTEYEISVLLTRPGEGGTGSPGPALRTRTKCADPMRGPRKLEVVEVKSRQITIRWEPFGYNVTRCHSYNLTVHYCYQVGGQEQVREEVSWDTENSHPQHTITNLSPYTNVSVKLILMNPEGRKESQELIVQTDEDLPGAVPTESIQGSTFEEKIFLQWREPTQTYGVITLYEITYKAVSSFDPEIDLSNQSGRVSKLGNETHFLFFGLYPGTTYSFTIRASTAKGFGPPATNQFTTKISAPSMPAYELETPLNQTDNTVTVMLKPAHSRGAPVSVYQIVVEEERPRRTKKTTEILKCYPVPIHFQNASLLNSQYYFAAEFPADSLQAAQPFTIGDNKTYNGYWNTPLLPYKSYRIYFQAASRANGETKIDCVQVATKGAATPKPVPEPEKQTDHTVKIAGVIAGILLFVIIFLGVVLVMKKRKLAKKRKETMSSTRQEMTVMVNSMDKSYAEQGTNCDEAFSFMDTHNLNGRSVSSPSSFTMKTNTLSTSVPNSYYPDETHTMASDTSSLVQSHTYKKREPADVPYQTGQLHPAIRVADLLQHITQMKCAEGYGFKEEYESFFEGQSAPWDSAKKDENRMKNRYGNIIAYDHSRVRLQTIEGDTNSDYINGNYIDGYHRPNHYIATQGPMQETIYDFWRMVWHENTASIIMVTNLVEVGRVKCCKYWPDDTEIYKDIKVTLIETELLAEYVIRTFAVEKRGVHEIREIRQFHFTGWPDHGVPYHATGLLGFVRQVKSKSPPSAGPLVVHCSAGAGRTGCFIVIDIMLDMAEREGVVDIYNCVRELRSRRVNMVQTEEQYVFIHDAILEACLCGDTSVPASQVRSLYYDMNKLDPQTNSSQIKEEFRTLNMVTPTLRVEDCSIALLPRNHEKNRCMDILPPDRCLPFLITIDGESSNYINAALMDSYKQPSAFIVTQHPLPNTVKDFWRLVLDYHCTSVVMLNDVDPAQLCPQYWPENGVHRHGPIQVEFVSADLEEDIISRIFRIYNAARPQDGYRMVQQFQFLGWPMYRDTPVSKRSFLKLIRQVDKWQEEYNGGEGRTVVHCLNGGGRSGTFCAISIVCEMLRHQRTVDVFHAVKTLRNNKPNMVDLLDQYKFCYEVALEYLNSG

| Structure (SMILES) | Effect on PTPμ phosphatase activity (released phosphate) (PTPμ; role: inhibitor, 100 μM, peptide substrate 60 μM, 30 °C, pH 7.4) | Tumor size relative to starting size (LN229 tumor xenograft; 3 weeks post first injection, intratumoral once a week, 2 mM, 25 μl) | Effect on tumor growth after treatment stopped (LN229 tumor xenograft; 4 weeks post first injection, in words) | Tumor histology (H&E) (LN229 tumor xenograft; tumors harvested at 4 weeks) | Effect on tumor growth (LN229 tumor xenograft; up to 3 weeks post first injection, intratumoral, in words) | Effect on parental Sf9 cell survival (parental Sf9 cells) | Interference with malachite green dye (PTPμ; apparent reaction product in absence of enzyme/substrate) |
| --- | --- | --- | --- | --- | --- | --- | --- |
| O=C(NCc1nc(-c2ccncc2)no1)c1ccc(Cl)c(S(=O)(=O)NCc2ccccc2)c1 [Compound 247678791] | modestly inhibit PTPμ's catalytic activity in vitro; also recorded: modest, but highly consistent reduction in released phosphate; also recorded: modestly inhibit the phosphatase activity of a PTPμ-intracellular construct; also recorded: modest, but statistically significant, reduction on enzymatic activity |  |  |  |  |  |  |
| COc1cc(C)ccc1OCC(=O)Nc1nc(-c2c[nH]c(C(N)=O)c2)cs1 [Compound 247678835] |  | 1.3 × | appeared to rebound; also recorded: no longer statistically appreciable at 4 weeks post-injection | generally appeared less ‘cellular’ than DMSO-treated controls; also recorded: appeared smaller and less cellular | inhibit glioma-cell growth in a human glioma tumor model in mice; also recorded: inhibit flank tumor growth in vivo; also recorded: able to affect tumor growth in vivo; also recorded: slowed tumor growth, producing a statistically significant growth reduction by 3 weeks post-first injection | did not affect parental Sf9 cells | reacted with the malachite green dye, giving an apparent reaction product in the absence of enzyme/substrate; also recorded: interacted with the dye used to measure the release of free phosphate |
| CCN(C(=O)CN1C(=O)NC(C)(CCC(C)C)C1=O)c1cccc2ccccc12 (centres unmarked) [Compound 247677616] |  |  |  |  |  | did not affect parental Sf9 cells |  |
